# According to paper PMC6973046 (Journal of Thrombosis and Haemostasis, 2019):
# How the values were obtained:
# [1] = biological target: T1, tissue transglutaminase (Homo sapiens, UniProt P21980); assay: Isopeptidase assay; format: biochemical; conditions: read-out: IC50 against tissue transglutaminase in the isopeptidase assay
# T1 sequence (P21980 1-687): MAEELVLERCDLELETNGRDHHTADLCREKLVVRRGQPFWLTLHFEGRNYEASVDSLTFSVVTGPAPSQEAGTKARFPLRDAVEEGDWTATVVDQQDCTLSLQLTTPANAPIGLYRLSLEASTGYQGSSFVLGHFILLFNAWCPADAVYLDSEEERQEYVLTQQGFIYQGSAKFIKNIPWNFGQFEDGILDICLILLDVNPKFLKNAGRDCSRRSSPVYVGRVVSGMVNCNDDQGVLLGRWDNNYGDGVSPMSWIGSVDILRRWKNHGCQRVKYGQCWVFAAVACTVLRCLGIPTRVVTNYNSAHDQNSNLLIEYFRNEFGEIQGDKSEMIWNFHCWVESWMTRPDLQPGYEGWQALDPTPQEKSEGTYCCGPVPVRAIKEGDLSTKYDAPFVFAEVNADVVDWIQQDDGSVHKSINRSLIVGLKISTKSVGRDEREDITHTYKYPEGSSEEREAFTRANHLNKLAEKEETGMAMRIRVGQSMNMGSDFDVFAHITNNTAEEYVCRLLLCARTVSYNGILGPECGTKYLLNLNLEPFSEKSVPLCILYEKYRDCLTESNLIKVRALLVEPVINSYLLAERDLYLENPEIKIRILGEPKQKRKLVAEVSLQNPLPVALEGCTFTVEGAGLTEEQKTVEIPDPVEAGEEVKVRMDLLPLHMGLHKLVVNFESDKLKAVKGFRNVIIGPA
# [2] = test system: humans; conditions: cited from earlier work
IC50 [1],SMILES,Safety and tolerability [2]
~250 nM,CC(=O)CSc1n(C)c(C)c(C)[n+]1C [L‐682.777],–
–,CCC(CC)CNC(=O)Cn1cccc(NC(=O)[C@H](CC/C=C/C(=O)OC)NC(=O)c2cncn2C)c1=O [ZED1227],safe and well tolerated
